Results reported in patent publication US8314092B2, “Substituted [(5H-pyrrolo[2,1-c][1,4]benzodiazepin-11-yl)piperazin-1-yl]-2,2-dimethylpropanoic acid compounds as dual activity H1 inverse agonists/5-HT2A antagonists” (Eli Lilly and Company, priority 2011, dated 2012).
Where a name gives a salt, the structure may show the parent alone.

Target: T1, 5-HT2A Receptor (Rattus norvegicus, UniProt P14842)
T1 construct: samples of the frontal cortex and cerebellum are removed; from tissue; host or cells: living rat; frontal cortex (cerebellum as null region)
Assay: 5-HT2A receptor occupancy in vivo (MDL 100907 tracer)
Details: oral gavage, 1 hour before tracer, read-out: 5-HT2A receptor occupancy EC50
Protocol: Briefly, male Sprague-Dawley rats (Harlan Sprague-Dawley, Indianapolis, Ind.) weighing approximately 230-280 grams are given ad lib access to food and water until the beginning of the 3-hour experimental protocol. 1 mg/kg ketanserin (non-selective 5-HT2A antagonist) is used as a positive control to establish assay validity. Test compounds or control are administered by oral gavage in a vehicle comprised of 20% hydroxypropyl beta-cyclodextrin. MDL 100907 ((R) -(+)-α-(2,3-Dimethoxyphenyl)-1-[2-(4-fluorophenyl)ethyl]-4-piperidinemethanol), a selective 5-HT2A antagonist, is used as a tracer. […] It is at the time of tracer administration that receptor occupancy (RO) is considered to be measured. […] The level of MDL 100907 tracer is measured in each cortical and cerebellar sample. RO is calculated using the well-established ratio method which employs a region of high receptor density representative of total binding (frontal cortex) normalized by an area without or with very low levels of receptor (cerebellum). […]
MDL 100907 Analysis: Cortex and cerebellar samples are weighed and placed in conical centrifuge tubes on ice. […] Standards are prepared by adding known quantities of analyte to brain tissue samples from non-treated rats and processing as described above. […]

T1 sequence (P14842 whole entry): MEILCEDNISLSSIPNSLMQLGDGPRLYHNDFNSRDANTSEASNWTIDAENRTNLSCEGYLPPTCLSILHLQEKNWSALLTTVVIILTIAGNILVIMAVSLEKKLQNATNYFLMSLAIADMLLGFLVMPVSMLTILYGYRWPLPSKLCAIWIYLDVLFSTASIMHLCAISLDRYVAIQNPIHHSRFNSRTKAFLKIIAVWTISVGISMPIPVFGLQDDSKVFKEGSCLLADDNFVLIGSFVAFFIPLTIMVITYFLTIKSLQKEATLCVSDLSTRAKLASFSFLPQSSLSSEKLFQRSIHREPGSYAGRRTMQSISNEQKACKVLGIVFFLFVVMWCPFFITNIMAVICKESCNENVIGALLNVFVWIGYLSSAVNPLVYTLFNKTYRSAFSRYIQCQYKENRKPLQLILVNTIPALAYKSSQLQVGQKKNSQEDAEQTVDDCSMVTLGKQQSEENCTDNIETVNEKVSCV

`Cc1cc2n(c1)Cc1cc(Cl)ccc1N=C2N1CCN(CC(C)(C)C(=O)O)CC1` [Example 13, 3-[4-(7-Chloro-2-methyl-5H-pyrrolo[2,1-c][1,4]benzodiazepin-11-yl)piperazin-1-yl]-2,2-dimethylpropanoic acid dihydrochloride] showed an ED50 of 0.27 mg/kg.
